13 compounds from US9504248B2, “Antimicrobial composition” (Rohm and Haas Company, priority 2011, dated 2016) can be followed below.

Holding throughout (type): cell-based
The test system of experiment [1] is Escherichia coli (E. coli - ATCC #10536). Description: Automated assessment of efficacy in surfactant base, 15 seconds exposure, OD450/OD590 readout (Example 4). The conditions noted are these: for MBC: Escherichia coli, ATCC10536, 15 s, in 2.85% sodium cocoyl glycinate + 1.85% sodium lauroamphoacetate solution at pH 10, 15 s; for antimicrobial action in combination with terpineol in the presence of surfactant (in words): cocoyl glycinate and lauroamphoacetate. The procedure:
In these examples, the efficacy of combinations of monosubstituted phenols and terpineol were tested in a surfactant cleansing formulation comprising 2.85% sodium cocoyl glycinate and 1.85% sodium lauroamphoacetate. This corresponds to a 50% in use dilution with water of a typical neat formulation containing 5.7% cocoyl glycinate and 3.7% % sodium lauroamphoacetate during hand washing. Solutions were prepared such that the concentrations of the surfactant components and test actives were 1.1 times the final desired concentration in order to allow for dilution with the bacterial inoculum in the test. The solutions were manually adjusted to pH 10.0 by dropwise addition of sodium hydroxide solution, as measured with a pH meter at ambient temperature. Solutions of the monosubstituted phenols and/or terpineols were prepared at a maximum of 24 hours before testing. The same terpineol was used as in Example 1.
The efficacy of the combinations of the present invention was determined against the same bacterium as in Example 1, Escherichia coli (E. coli—ATCC #10536), at a concentration of approximately 1×10^8 bacteria per mL.
Tests were conducted using standard microtiter plate assays using an automated liquid handling system. 270 μl of the surfactant test solution was pipetted into each well of the microtitre plate (Nunc F Gamma Irradiated 96F untreated microtitre plates of clear polystyrene) and 30 μl of the bacterial suspension was then added. After exactly 15 seconds of bacterial exposure, a 30 μl volume of bacterial cells was withdrawn and transferred to 270 μl of D/E quench solution. After 5 minutes in the D/E quench, the optical density (OD) was measured for each plate in turn at two specific wavelengths (450 nm and 590 nm). These provide a dual check of antimicrobial activity, as the OD450 reading is specific for the yellow colour of D/E quench when bacterial growth is observed, whereas OD590 is specific for the initial purple colour of the D/E quench which is retained if no bacterial growth is observed. After the time zero OD measurements, plates were then incubated at 37° C. overnight (16 hours) before repeating the OD measurements. Delta OD values were calculated by subtracting […] at time=16 hours. Bacterial growth is observed as an increase in OD450 and a decrease in OD590. To identify antibacterially efficacious systems (those preventing appreciable bacterial growth after incubation), the following threshold changes in OD readings have been adopted: if (1). OD450 increases by less than 0.2 absorbance unit (AU) on incubation and (2). OD590 decreases by less than 0.35 AU on incubation. Conversely, where OD450 increases by more than […] after incubation, corresponding to a colour shift from purple to yellow, the test system allows bacterial growth and is not deemed efficacious. Four replicate measurements in the same plate have been made for each test system. The number of replicate wells showing either bacterial growth or no growth is also readily assessed by eye by following the colour change. Thymol and terpineol were tested both alone and in combination for comparison purposes.
In some selected cases, the combinations were also tested at the weight ratio 1:1.
The surfactants used are not themselves antimicrobially active against E. coli at the concentrations employed as shown by the results of Ex. (4:1) in Table 24. Thus, any antimicrobial efficacy can be ascribed to the monosubstituted phenols and/or terpineol. Table 25 presents MBC-values determined similarly as described for Example 1.

Experiment [2] shares this test system. In words: High resolution MBC synergy assay in phosphate buffer containing 35% dipropylene glycol, 15 seconds (Example 2). The conditions noted are these: 15 s, complete kill; phosphate buffer with 35% DPG. The procedure: In this Example, a wide range of combinations of chemicals was tested by conducting high resolution MBC assays of monosubstituted phenols in the presence of various concentrations of terpineol. […] High resolution MBCs were determined by adding varying amounts of microbicide to one column of a microtiter plate and doing subsequent […] dilutions using an automated liquid handling system to obtain a series of endpoints ranging from 0.002% to 1% of the test compound. The MBC plate was inoculated one column at a time with the test microorganism. An aliquot of the inoculated well was transferred at 15 seconds to a plate containing a neutralizing agent (D/E Neutralizing Broth), mixed and held for 5 minutes before being transferred to a growth plate containing trypticase soy broth (TSB). The TSB plate was incubated at 37° C. and read for the presence/absence of growth at 24 hours.
This microorganism is representative of natural contaminants in many consumer and industrial applications.

Experiment [3] concerns Escherichia coli (10536 strain). Description: 15 second contact suspension kill assay (Example 1 protocol, also Example 3). The conditions noted are these: Escherichia coli, 15 s, lowest tested concentration giving zero bacterial survival after 15 s, upper boundary. The source says: The efficacies of antimicrobial agents can be usefully compared by determining the Minimum Biocidal Concentration (MBC). The MBC is defined as the lowest absolute concentration of the particular active that provides complete kill (zero bacterial growth). The differing behaviours of inhibitory antimicrobtals in Isolation and mixtures have been widely explored using the concept of the Fractional Concentration and Fractional Inhibitory Concentration (FIC). See for instance J R W Lambert and R Lambert, J. Appl. Microblol 95, 734 (2003); T. Jadavji. C G Prober and R Cheung. Antimicrobial Agents and Chemotherapy 26, 91 (1984), and WO 2004/006876. These parameters can be defined as follows:
[formula] [formula] By analogy the Fractional Biocidal Concentration (FBC) is given by:
Antimicrobial efficacy is tested against a representative pathogenic bacterial organism, Gram negative Escherichia coli. Concentrations of actives are expressed in terms of the percentage weight/volume (% w/v) throughout Example 1.
An overnight culture of Escherichia coli (10536 strain) was prepared in 50 ml total volume of TSB broth, grown for ca. 18 hrs at 37° C. and shaken at 150 rpm. 1 ml of this overnight E. coli culture was transferred to 50 ml of fresh TSB broth and incubated at 37° C. at 150 rpm for ca. 4 hours. This culture was separated into equal volumes and centrifuged at 4000 rpm for 15 minutes, washed with sterile saline (0.85% NaCl), centrifuged once more and re-suspended in saline to give a final concentration of 0.8 OD620 equivalent to about 10^8 cells per milliliter for this particular organism. Here, OD620 indicates the absorbance of a sample in a cuvette of 1.0 cm path length at a wavelength of 620 nm. This bacterial stock was used for assaying against antimicrobial actives (in triplicate).
The following assay describes the testing of 8 materials using 6 dilutions across half of a 96-well micro titre plate (MTP). Using this approach it is possible to assay 16 actives (without replicates) with one full dilution plate, replicating this set up in two halves of the plate columns, 1-6 and 7-12.
1M solutions of the test actives were prepared in dimethylsulphoxide (DMSO).
Aliquots (270 μl) of the materials at 1.11 times the final concentration were dispensed into the wells of the MTP along one column (A1-H1). This MTP was labelled as the “Screening plate”.
In another MTP, labelled as the “Dilution plate”, 270 μl of D/E neutralising solution from DIFCO Composition was added to column 1. The composition of the neutralising solution was as follows: pancreatic digest of casein, 5.0 g/L; Yeast Extract, 2.5 g/L; Dextrose, 10 g/L, sodium thioglycollate, 1.0 g/L, sodium thiosulphate, 6.0 g/L; sodium bisulphite, 2.5 g/L; Polysorbate 80, 5.0 g/L; lecithin 7.0 g/L; bromocresol purple, 0.02 g/L with a pH in the range 7.6±0.2.
270 μl of tryptone diluent solution was added to all the remaining wells of the Dilution MTP (columns 2-6).
Bacterial stock (30 μl) was then added to the prepared 270 μl of the solution of actives in the Screening Plate and mixed, using a multichannel pipette with 8 tips to aspirate and dispense the same volume of bacterial stock in parallel to 8 wells in rows A-H. After a contact time of 15 seconds, the mixtures were quenched by transferring 30 μl volumes of the mixtures into the 270 μl D/E neutralising solution in the prepared dilution plate, using aspiration to mix. After exactly 5 minutes in the DIE neutralising solution, 30 μl volumes were transferred from column 1 to column 2 of the Dilution MTP and mixed, before transferring further 30 μl volumes from column 2 into column 3. This process was repeated serially diluting the bacteria across the plate to column 6.
30 μl volumes from each well in the Dilution MTP were transferred onto pre-labelled segment of Tryptone Soya Agar (TSA) plates starting from the lowest bacterial concentration (highest dilution, column 6) to the highest bacterial concentration (column 1).

The mark [4] stands for this setting: component alone, read-out: Minimum biocidal concentration (MBC).

Values after ≈ are worked out from the molar mass of the structure shown. Where two headings read alike, the source gives them in different places. Where only a bound is given, the exact number is not on record here.

Regarding `CCCc1cccc(O)c1` [3-n-propylphenol], in experiment [1], the MBC was 1750 µg/mL and the “antimicrobial action in combination with terpineol in the presence of surfactant (in words)” value (from here on “antimicrobial action in combination”) is given as “enhanced antimicrobial action”. The “MBC of first component alone (MBCA; Ca at Cb = 0)” value (“MBC of first component alone” for short) in experiment [2] was 0.05 weight %.
As to `Oc1ccccc1Cc1ccccc1` [2-benzylphenol], the MBC in experiment [1] was over 2000 µg/mL; in experiment [3] (setting [4]), 500 µg/mL (≈ 2.71 mM). Besides, the “antimicrobial action in combination” value in experiment [1] is given as “enhanced antimicrobial action”. For the same compound, in experiment [2], the “MBC of first component alone” value was determined as 0.6 weight %.
With `CCCc1ccccc1O` [2-n-propylphenol], the “antimicrobial action in combination” value in experiment [1] is “enhanced antimicrobial action”. For the same compound, the “MBC of first component alone” value in experiment [2] is 0.3 weight %.
Regarding `Oc1ccc(Cc2ccccc2)cc1` [4-benzylphenol], in experiment [1], the MBC is over 2000 µg/mL and the “antimicrobial action in combination” value is “enhanced antimicrobial action”. In experiment [2], the “MBC of first component alone” value worked out at 0.5 weight %. The MBC in experiment [3] (setting [4]) came to 500 µg/mL (≈ 2.71 mM).
For the compound `CC(C)(C)c1ccccc1O` [2-tert-butylphenol], in experiment [1], the MBC turned out to be 1750 µg/mL and the “antimicrobial action in combination” value was “enhanced antimicrobial action”. Further, the “MBC of first component alone” value in experiment [2] was found to be 0.2 weight %. In experiment [3] (setting [4]), the MBC stood at 500 µg/mL (≈ 3.33 mM).
Take `CC1=CCC(C(C)(C)O)CC1` (stereo not drawn) [alpha-terpineol]: in experiment [2], the “MBC of second component (terpineol) alone (MBCB; Cb at Ca = 0)” value turned out to be 0.6 weight %.
With `CCC(C)c1ccccc1O` (stereo not drawn) [2-sec-butylphenol], in experiment [1], the MBC was over 2000 µg/mL and the “antimicrobial action in combination” value was “enhanced antimicrobial action”. Further, the “MBC of first component alone” value in experiment [2] is 0.2 weight %. For the same compound, in experiment [3] (setting [4]), the MBC turned out to be 500 µg/mL (≈ 3.33 mM).
As to `Oc1ccc(C2CCCC2)cc1` [4-cyclopentylphenol], the values for the MBC in experiment [1] and in experiment [3] (setting [4]) were over 2000 µg/mL and 800 µg/mL (≈ 4.93 mM), respectively. Further, the “MBC of first component alone” value in experiment [2] came to 0.6 weight %.
As to `CCCc1ccc(O)cc1` [4-n-propylphenol], the “antimicrobial action in combination” value in experiment [1] is listed as “enhanced antimicrobial action”. Further, the “MBC of first component alone” value in experiment [2] amounted to 0.3 weight %. In experiment [3] (setting [4]), the MBC came out at 750 µg/mL (≈ 5.51 mM).
As for `CCCCCc1ccc(O)cc1` [4-pentylphenol], the values for the MBC in experiment [1] and in experiment [3] (setting [4]) were over 2000 µg/mL and 250 µg/mL (≈ 1.52 mM), respectively. For the same compound, the “MBC of first component alone” value in experiment [2] came out at 1.0 weight %.
With `Oc1cccc(-c2ccccc2)c1` [3-phenylphenol], the “antimicrobial action in combination” value in experiment [1] is on record as “enhanced antimicrobial action”. Moreover, the MBC in experiment [3] (read-out: Minimum biocidal concentration (MBC), component alone) was at least 1250 µg/mL.
`CC(C)(C)c1cccc(O)c1` [3-tert-butylphenol]: the “antimicrobial action in combination” value in experiment [1] was “enhanced antimicrobial action”. Moreover, the MBC in experiment [3] (setting [4]) was found to be 800 µg/mL (≈ 5.33 mM).
`Oc1ccccc1C1CCCC1` [2-cyclopentylphenol]: the MBC in experiment [1] is over 2000 µg/mL; in experiment [3] (setting [4]) it was 1000 µg/mL (≈ 6.16 mM). The “antimicrobial action in combination” value in experiment [1] is listed as “enhanced antimicrobial action”. The “MBC of first component alone” value in experiment [2] amounted to 0.8 weight %.
